This test addresses T1, Human PPARα (Homo sapiens, UniProt Q07869).
T1 construct: host or cells: proprietary non-human mammalian cells
T1 sequence (Q07869 1-468): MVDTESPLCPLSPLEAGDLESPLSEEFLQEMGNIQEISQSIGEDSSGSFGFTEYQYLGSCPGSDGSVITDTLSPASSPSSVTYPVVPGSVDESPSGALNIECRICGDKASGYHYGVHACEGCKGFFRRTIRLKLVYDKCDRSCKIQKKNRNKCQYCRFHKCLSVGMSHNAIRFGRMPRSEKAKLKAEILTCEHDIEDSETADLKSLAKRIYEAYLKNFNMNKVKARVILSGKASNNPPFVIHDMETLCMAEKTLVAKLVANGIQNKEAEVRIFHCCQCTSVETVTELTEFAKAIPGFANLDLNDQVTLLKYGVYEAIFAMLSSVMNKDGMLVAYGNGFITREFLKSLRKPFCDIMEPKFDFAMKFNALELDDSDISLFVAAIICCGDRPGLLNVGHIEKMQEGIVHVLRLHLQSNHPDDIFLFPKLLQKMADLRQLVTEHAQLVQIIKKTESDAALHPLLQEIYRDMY
The experiment in a line: Human PPARα Reporter Assay (luciferase). It is filed as cell-based. The conditions noted are these: human PPARα reporter cells, overnight incubation, antagonism; read-out: Luciferase IC50. The protocol: Human PPARα Reporter Assay
The screening of test compounds for agonist or antagonist activities against human PPARα receptors was performed using a commercial kit, Human PPARα Reporter Assay System (Indigo Biosciences, Cat. #IB00111).
This nuclear receptor assay system utilizes proprietary non-human mammalian cells engineered to provide constitutive, high-level expression of Human PPARα. Because these cells incorporate a PPARα-responsive luciferase reporter gene, quantifying expressed luciferase activity provides a sensitive surrogate measure of PPARα activity in the treated cells. The primary application of this reporter assay system is in the screening of test samples to quantify any functional activity, either agonist or antagonist, that they may exert against human PPARα.
Briefly, reporter cells are dispensed into wells of the assay plate and then immediately dosed with test compounds. Following an overnight incubation, the treatment media is discarded and Luciferase Detection Reagent (LDR) is added. The intensity of light emission from the ensuing luciferase reaction provides a sensitive measure that is directly proportional to the relative level of PPARα activation in the reporter cells.
For orientation: Reporter assays use an easily measured gene product as a stand-in for the process of interest.
On to `CCn1c(CCCc2ccc(-c3cccc(NS(=O)(=O)c4ccccc4)n3)cc2)nn(Cc2ccc(C(C)(C)C)cc2)c1=O` [Example 4, N-(6-(4-(3-(1-(4-(tert-Butyl)benzyl)-4-ethyl-5-oxo-4,5-dihydro-1H-1,2,4-triazol-3-yl)propyl)phenyl)pyridin-2-yl)benzenesulfonamide], for which the IC50 (as a rule, the midpoint of a concentration-inhibition curve) came out at 40 nM.
For the compound `CCn1c(CCCc2ccc(-c3cccc(CS(=O)(=O)NCc4ccccc4)c3)cc2)nn(Cc2ccc(C(C)(C)C)cc2)c1=O` [Example 105, N-Benzyl-1-(4′-(3-(1-(4-(tert-butyl)benzyl)-4-ethyl-5-oxo-4,5-dihydro-1H-1,2,4-triazol-3-yl)propyl)-[1,1′-biphenyl]-3-yl)methanesulfonamide], the IC50 was 985 nM.
For the compound `CCn1c(CCCc2ccc(-c3ccc(NS(=O)(=O)c4ccc(C(F)(F)F)cc4)cn3)cc2)nn(Cc2ccc(C(C)(C)C)cc2)c1=O` [Example 86, 1-{[4-(tert-Butyl)phenyl]methyl}-4-ethyl-3-(3-{4-[5-({[4-(trifluoromethyl)phenyl]sulfonyl}amino)(2-pyridyl)]phenyl}propyl)-1,2,4-triazolin-5-one], the IC50 stood at 971 nM.
As to `CCn1c(CCCc2ccc(-c3ccc(OC(F)(F)F)c(C(=O)O)c3)cc2)nn(Cc2ccc(C(C)(C)C)cc2)c1=O` [Example 131, 4′-(3-(1-(4-(tert-Butyl)benzyl)-4-ethyl-5-oxo-4,5-dihydro-1H-1,2,4-triazol-3-yl)propyl)-4-(trifluoromethoxy)-[1,1′-biphenyl]-3-carboxylic acid], the IC50 is 15 nM.
For `CCn1c(CCCc2ccc(-c3cccc(CNS(C)(=O)=O)c3)cc2)nn(Cc2ccc(C(C)(C)C)cc2)c1=O` [Example 178, 1-{[4-(tert-Butyl)phenyl]methyl}-4-ethyl-3-{3-[4-(3-{[(methylsulfonyl)amino]methyl}phenyl)phenyl]propyl}-1,2,4-triazolin-5-one], the IC50 worked out at 417 nM.
As to `CCn1c(CCCc2ccc(-c3ccc(C4(F)COC4)cn3)cc2)nn(Cc2ccc(C(C)(C)C)cc2)c1=O` [Example 191, 1-(4-(tert-Butyl)benzyl)-4-ethyl-3-(3-(4-(5-(3-fluorooxetan-3-yl)pyridine-2-yl)phenyl)propyl)-1H-1,2,4-triazol-5(4H)-one], the IC50 is 41 nM.
In the case of `CCn1c(CCCc2ccc(-c3ccc(OC)c(NS(=O)(=O)C4CCCCC4)n3)cc2)nn(Cc2ccc(C(C)(C)C)cc2)c1=O` [Example 192, 1-{[4-(tert-Butyl)phenyl]methyl}-4-ethyl-3-[3-(4-{6-[(cyclohexylsulfonyl)amino]-5-methoxy(2-pyridyl)}phenyl)propyl]-1,2,4-triazolin-5-one], the IC50 is 12 nM.
For the compound `COc1ccc(-c2ccc(CCCc3nn(Cc4ccc(C(C)(C)C)cc4)c(=O)n3CC(F)(F)F)cc2)cc1CC(=O)O` [Example 55, 2-(4′-(3-(1-(4-(tert-Butyl)benzyl)-5-oxo-4-(2,2,2-trifluoroethyl)-4,5-dihydro-1H-1,2,4-triazol-3-yl)propyl)-4-methoxy-[1,1′-biphenyl]-3-yl)acetic acid], the IC50 was determined as 250 nM.
For the compound `CCCC(=O)Nc1cccc(-c2ccc(CCCc3nn(Cc4ccc(C(C)(C)C)cc4)c(=O)n3CC)cc2)n1` [Example 100, N-(6-{4-[3-(1-{[4-(tert-Butyl)phenyl]methyl}-4-ethyl-5-oxo-1,2,4-triazolin-3-yl)propyl]phenyl}-2-pyridyl)butanamide], the IC50 stood at 712 nM.
Then `CC(C)(C)c1ccc(Cn2nc(CCCc3ccc(-c4cccc(CC(=O)O)c4)cc3)n(-c3ccccc3)c2=O)cc1` [Example 32, 2-(4′-(3-(1-(4-(tert-Butyl)benzyl)-5-oxo-4-phenyl-4,5-dihydro-1H-1,2,4-triazol-3-yl)propyl)-[1,1′-biphenyl]-3-yl)acetic acid], with 2990 nM.
In the case of `CCn1c(CCCc2ccc(-c3ccc(OC(C)C)c(CC(=O)O)c3)cc2)nn(Cc2ccc(C(C)(C)C)cc2)c1=O` [Example 200, 2-(4′-(3-(1-(4-(tert-Butyl)benzyl)-4-ethyl-5-oxo-4,5-dihydro-1H-1,2,4-triazol-3-yl)propyl)-4-isopropoxy-[1,1′-biphenyl]-3-yl)acetic acid], the IC50 amounted to 13 nM.

The record behind these values is patent US9505728B2, “Triazolone compounds and uses thereof” (INCEPTION 2, INC., priority 2012, dated 2016).
